Measured values taken from PubChem BioAssay AID1033 (Sanford-Burnham Center for Chemical Genomics, 2008).
Active and inactive are the calls of the source. How the calls were made is not given here.

These molecules were tested against Chaperone protein DnaK (Escherichia coli (strain K12)) (UniProt P0A6Y8) (assay: binders of DnaK substrate-binding domain, biophysical, NMR, chaperone (AID 1033)). Details: Purified DnaK SBD, NMR ligand binding.
Sequence of Chaperone protein DnaK (Escherichia coli (strain K12)) (P0A6Y8 whole entry, looked up, the tested form may be a part): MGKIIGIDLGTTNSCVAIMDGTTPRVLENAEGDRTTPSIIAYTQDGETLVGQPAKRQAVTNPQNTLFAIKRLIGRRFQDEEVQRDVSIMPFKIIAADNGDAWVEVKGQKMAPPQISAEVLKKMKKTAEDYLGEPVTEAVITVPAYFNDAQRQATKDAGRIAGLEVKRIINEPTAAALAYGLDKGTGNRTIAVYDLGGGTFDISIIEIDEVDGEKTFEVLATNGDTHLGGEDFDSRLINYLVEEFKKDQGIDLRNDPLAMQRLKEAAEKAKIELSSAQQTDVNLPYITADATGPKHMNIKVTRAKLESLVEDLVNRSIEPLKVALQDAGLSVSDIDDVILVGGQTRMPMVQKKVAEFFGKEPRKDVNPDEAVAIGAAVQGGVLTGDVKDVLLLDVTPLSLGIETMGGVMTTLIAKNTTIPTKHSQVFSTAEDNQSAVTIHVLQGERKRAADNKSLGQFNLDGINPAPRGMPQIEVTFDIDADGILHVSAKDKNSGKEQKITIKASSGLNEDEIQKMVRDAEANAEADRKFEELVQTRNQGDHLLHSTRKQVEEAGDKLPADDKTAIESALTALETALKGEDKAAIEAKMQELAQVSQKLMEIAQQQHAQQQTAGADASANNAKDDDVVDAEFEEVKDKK
For `NC(=O)c1cccc(Cl)n1`, the Kd was > 4 mM (inactive). `Cc1nnc(NCCCO)[nH]c1=O` was tested, and the Kd was > 4 mM (inactive). `COc1ccc2c(C)cc(=O)oc2c1` was tested, and the Kd was > 4 mM (inactive). With `Nc1nc(SCc2ccc3c(c2)OCO3)n[nH]1` the Kd was > 4 mM (inactive). With `O=C1CN(C(=O)c2ccccc2F)c2ccccc2N1` the Kd was > 4 mM (inactive). In the case of `O/N=C1/CCCc2nonc21`, the Kd is reported as > 4 mM (inactive). With `CC(C)(C)C(=O)Nc1nnc(SCC(N)=O)s1` the Kd was > 4 mM (inactive). With `O=C1C=C(Nc2ccccc2O)c2ccccc2C1=O` the Kd was > 4 mM (inactive). `CSc1ccccc1NC(=O)c1cnccn1` was tested, and the Kd was > 4 mM (inactive). With `CC(C)NC(=O)c1cc(=O)n(C)c(=O)n1C` the Kd was > 4 mM (inactive). `O=C1CC(NCc2ccco2)C(=O)NN1` (stereo not given) was tested, and the Kd was > 4 mM (inactive). `CC(C)n1nnc2cc(C(=O)O)ccc21` was tested, and the Kd was > 4 mM (inactive). `Cc1nc2sc3c(c2c(=N)n1N)CC(C)(C)OC3` was tested, and the Kd was > 4 mM (inactive). For `Nc1ncnc2c1ncn2[C@@H]1O[C@H](CO)[C@@H](O)[C@H]1O`, the Kd was > 4 mM (inactive). For `Cc1cc(C)n(S(=O)(=O)c2ccc(C)c(C)c2C)n1`, the Kd was > 4 mM (inactive). In the case of `Cc1occc1C(=O)Nc1nnc(C(F)(F)F)s1`, the Kd is reported as > 4 mM (inactive). `COc1cc([C@@H]2c3cc4c(c(O)c3C[C@H]3COC(=O)[C@@H]32)OCO4)cc(OC)c1OC` was tested, and the Kd was > 4 mM (inactive). In the case of `CC1(C)O[C@H]2CC(=O)OC[C@]23[C@H]2CC[C@@]4(C)[C@H](c5ccoc5)OC(=O)[C@H]5O[C@]54[C@]2(C)C(=O)C[C@@H]13`, the Kd is reported as > 4 mM (inactive). `O=C(O)c1ccnn1-c1ccccc1` was tested, and the Kd was > 4 mM (inactive). `O=C(Nc1ccccc1C(F)(F)F)c1cnccn1` was tested, and the Kd was > 4 mM (inactive). For `CCOC(=O)c1[nH]c(C)cc1C`, the Kd was > 4 mM (inactive). `O=C(O)CCCc1nc2ccccc2s1` was tested, and the Kd was > 4 mM (inactive). For `OCc1ccc2ncccc2c1`, the Kd was > 4 mM (inactive). `NCc1csc2ccccc12` was tested, and the Kd was > 4 mM (inactive). For `CCOc1ccc(C(=O)c2ccc(OC)c(O)c2O)cc1`, the Kd was > 4 mM (inactive). For `NCC(=O)c1ccccc1`, the Kd was > 4 mM (inactive). `NC(=O)CN1CC(=O)NC(=O)C1` was tested, and the Kd was > 4 mM (inactive). In the case of `Cc1ccc(C)c(S(=O)(=O)NCc2cccnc2)c1`, the Kd is reported as > 4 mM (inactive). In the case of `CC(C)c1ccc2c(c1)CCC1[C@](C)(CN)CCC[C@]21C` (stereo not given in full), the Kd is reported as > 4 mM (inactive). `CC(C)CCCC(C)C1CCC2C3=CC[C@H]4C[C@@H](O)CC[C@]4(C)C3CC[C@@]21C` (stereo not given in full) was tested, and the Kd was > 4 mM (inactive). For `CN1C(=O)CC[C@H]1c1cccnc1`, the Kd was > 4 mM (inactive). With `Nc1nc2ccc(S(N)(=O)=O)cc2s1` the Kd was > 4 mM (inactive). In the case of `COc1cc(C)c2c(c1C=O)Oc1c(c(C)c(O)c3c1C(O)OC3=O)OC2=O` (stereo not given), the Kd is reported as > 4 mM (inactive). With `O=C1NC(=O)C(C(C[N+](=O)[O-])c2ccc(O)cc2)C(=O)N1` (stereo not given) the Kd was > 4 mM (inactive). `Nc1cccc(S(=O)(=O)N2CCCCC2)c1` was tested, and the Kd was > 4 mM (inactive). With `COc1cccc(Oc2ccc(N)cc2)c1` the Kd was > 4 mM (inactive). For `O=c1cnnc(Nc2ccc(O)cc2)[nH]1`, the Kd was > 4 mM (inactive). With `Fc1cccc(F)c1CN1CCN(c2ncccn2)CC1` the Kd was > 4 mM (inactive). In the case of `CCOC(=O)c1ccc(Oc2ccc(C)nn2)cc1`, the Kd is reported as > 4 mM (inactive). In the case of `COc1ccccc1NC(=O)CCC(=O)O`, the Kd is reported as > 4 mM (inactive). For `O=C1NC(=S)N/C1=C/c1ccc(O)c(Cl)c1`, the Kd was > 4 mM (inactive). With `O=S1(=O)CCC(Nc2ccccc2)C1` (stereo not given) the Kd was > 4 mM (inactive). In the case of `CC(=O)c1cc2c(cc1O)OC(C)(C)C=C2`, the Kd is reported as > 4 mM (inactive). In the case of `Cc1cc(C(=O)Nc2sc(C)c(C)c2C#N)c(C)o1`, the Kd is reported as > 4 mM (inactive). For `Nc1nc2c3ccccc3nc(Cc3ccccc3)n2n1`, the Kd was > 4 mM (inactive). In the case of `Oc1ccc2c(c1)OCO2`, the Kd is reported as > 4 mM (inactive). `O=c1cc(-c2ccccc2)oc2cc(O)cc(O)c12` was tested, and the Kd was > 4 mM (inactive). With `O=C1Nc2ccccc2C1(O)Cc1ccncc1` (stereo not given) the Kd was > 4 mM (inactive). For `O=C(NC1CCS(=O)(=O)C1)C1CCCCC1` (stereo not given), the Kd was > 4 mM (inactive). `CNC(=O)C1CCCN(S(C)(=O)=O)C1` (stereo not given) was tested, and the Kd was > 4 mM (inactive). In the case of `S=C1NC(=S)NC(c2ccc3c(c2)OCO3)N1`, the Kd is reported as > 4 mM (inactive). In the case of `CCSc1nc2ccccc2n1CC(N)=O`, the Kd is reported as > 4 mM (inactive). For `OC[C@@H](O)[C@@H](O[C@@H]1O[C@H](CO)[C@@H](O)[C@H](O)[C@H]1O)[C@H](O)[C@@H](O)CO`, the Kd was > 4 mM (inactive). `O=C(Nn1cnnc1)c1ccccc1Cl` was tested, and the Kd was > 4 mM (inactive). For `O=C(/C(=N\O)n1cncn1)c1ccccc1Cl`, the Kd was > 4 mM (inactive). `COc1c(-c2coc3cc4c(cc3c2=O)CC(O)C(C)(C)O4)ccc2c1C=CC(C)(C)O2` (stereo not given) was tested, and the Kd was > 4 mM (inactive). In the case of `Cc1c(C(=O)NC2=NCCS2)oc2ccccc12`, the Kd is reported as > 4 mM (inactive). `Cc1onc(-c2ccccc2)c1CN` was tested, and the Kd was > 4 mM (inactive). `O=C(O)CCC1NCC2CC1CN1CCCCC21` (stereo not given) was tested, and the Kd was > 4 mM (inactive). `CC1(C)C2C[C@@H](O)[C@]3(C)C(CC[C@@]4(C)[C@H](c5ccoc5)OC(=O)[C@H]5O[C@]543)[C@@]2(C)[C@@H](O)C[C@H]1O` (stereo not given in full) was tested, and the Kd was > 4 mM (inactive). In the case of `O=C(O)c1ccccc1N1CCOCC1`, the Kd is reported as > 4 mM (inactive). In the case of `CN1CCN(c2ncnc3nc[nH]c23)CC1`, the Kd is reported as > 4 mM (inactive). For `COc1cccc(/C=C/C(=O)O)c1C(C)C`, the Kd was > 4 mM (inactive). In the case of `CN(C)Cc1nc2c([nH]1)c(=O)[nH]c(=O)n2C`, the Kd is reported as > 4 mM (inactive). For `CC(NC(=O)c1ccco1)C1CCCO1` (stereo not given), the Kd was > 4 mM (inactive). With `Cc1cc[n+](-c2nc([O-])sc2C=O)cc1` the Kd was > 4 mM (inactive). In the case of `Cc1ccc(NC(=O)C2CCCNC2=O)nc1` (stereo not given), the Kd is reported as > 4 mM (inactive). In the case of `O=C(O)c1cccc(N2C(=O)C3CC=CCC3C2=O)c1` (stereo not given), the Kd is reported as > 4 mM (inactive). `COc1cc(/C=C/C(=O)O)cc(OC)c1OC` was tested, and the Kd was > 4 mM (inactive). `Cc1cccc(-n2c(N)cc(=O)[nH]c2=S)c1C` was tested, and the Kd was > 4 mM (inactive). For `CC(C)[C@@H]1CC[C@@H](C)C[C@H]1O`, the Kd was > 4 mM (inactive). For `CC(=O)c1c(C)nc(C)nc1NC(=O)C(C)C`, the Kd was > 4 mM (inactive). For `O=S1(=O)C=C(Nc2ccccc2)CC1`, the Kd was > 4 mM (inactive). In the case of `CC1=CC2C(CC1=O)C(C)=CCC2C(C)C` (stereo not given), the Kd is reported as > 4 mM (inactive). For `O=C(O)c1coc2c1C(=O)CCC2`, the Kd was > 4 mM (inactive). With `COc1cc2[nH]c(=S)n(C)c(=O)c2cc1OC` the Kd was > 4 mM (inactive). `O=S1(=O)CCC(NC(=S)Nc2ccccn2)C1` (stereo not given) was tested, and the Kd was > 4 mM (inactive). In the case of `OCc1ccc2c(c1)OCO2`, the Kd is reported as > 4 mM (inactive). For `Cc1ccc(OCC(=O)n2cnnc2N)c(C)c1`, the Kd was > 4 mM (inactive). With `Cc1ccccc1OCC(=O)O` the Kd was > 4 mM (inactive). `NC(=O)Cn1cnc2c(cnn2-c2ccccc2)c1=O` was tested, and the Kd was > 4 mM (inactive). For `Nc1ncnc2nc[nH]c12`, the Kd was > 4 mM (inactive). With `COc1ccc2c(c1)OCC(Cc1ccc(OC)c(O)c1)C2=O` (stereo not given) the Kd was > 4 mM (inactive). In the case of `CCn1cnc2cc(NCc3ccncc3)ccc21`, the Kd is reported as > 4 mM (inactive). `COc1cc(O)c(C)c(O)c1` was tested, and the Kd was > 4 mM (inactive). With `CC12CN(CC#N)CC(C)(CN(CC#N)C1)C2=O` the Kd was > 4 mM (inactive). `O=C(NN=C1CCCC1)c1ccncc1` was tested, and the Kd was > 4 mM (inactive). For `Cc1ccccc1-n1c(-c2ccncc2)n[nH]c1=S`, the Kd was > 4 mM (inactive). For `COc1cc(O)c(C(C)=O)c(OC)c1`, the Kd was > 4 mM (inactive). With `COC(=O)c1c[nH]c2ccccc12` the Kd was > 4 mM (inactive). For `CSc1ccccc1NC(=O)c1ccc(C)o1`, the Kd was > 4 mM (inactive). `O=C(c1cc2ccccc2o1)c1nc2c(n1O)CCCCC2` was tested, and the Kd was > 4 mM (inactive). With `NCc1ccc(-c2ccccn2)s1` the Kd was > 4 mM (inactive). With `Nc1cccc(-n2cnnn2)c1` the Kd was > 4 mM (inactive). `CC12OC(=O)CC3C(C)(C)[C@H](O)C=C[C@]3(C)C1CC[C@]1(C)C2=CC(=O)O[C@H]1c1ccoc1` (stereo not given in full) was tested, and the Kd was > 4 mM (inactive). With `CN(C)c1oc(-c2ccccc2Cl)nc1C#N` the Kd was > 4 mM (inactive). For `CC(C)NC(=S)NCc1cnn(C)c1`, the Kd was > 4 mM (inactive). `CCC(/C=C/[C@@H](C)[C@H]1CCC2C3CC=C4C[C@@H](O)CC[C@]4(C)C3CC[C@@]21C)C(C)C` (stereo not given in full) was tested, and the Kd was > 4 mM (inactive). In the case of `CNC(=S)N1CCN=C1Nc1nc(C)cc(C)n1`, the Kd is reported as > 4 mM (inactive). For `COC(=O)CCSCC(=O)Nc1nccs1`, the Kd was > 4 mM (inactive). With `CSc1cccc(NC(=O)c2c(Cl)cnn2C)c1` the Kd was > 4 mM (inactive). For `CC(=O)Oc1cc2c(c(C)c1OC(C)=O)CC=C1[C@@]2(C)CC[C@@]2(C)C3C[C@](C)(C(=O)O)CC[C@]3(C)CC[C@]12C` (stereo not given in full), the Kd was > 4 mM (inactive). For `Cc1nnsc1C(=O)N(C)c1ccccc1`, the Kd was > 4 mM (inactive). `Cc1cc2cc(N)ccc2[nH]1` was tested, and the Kd was > 4 mM (inactive). `CN1CCCCC1c1ccc(-c2cccnc2)nc1` (stereo not given) was tested, and the Kd was > 4 mM (inactive). `NCc1cn2ccccc2n1` was tested, and the Kd was > 4 mM (inactive). In the case of `CC(C)(C(N)=O)/[N+]([O-])=C\c1ccccc1`, the Kd is reported as > 4 mM (inactive). For `COc1ccc(C)cc1S(=O)(=O)NC1CCCC1`, the Kd was > 4 mM (inactive). For `CC(N)C(=O)c1ccco1` (stereo not given), the Kd was > 4 mM (inactive). `O=c1[nH]cc(N=Cc2ccc(F)cc2)c(=O)[nH]1` was tested, and the Kd was > 4 mM (inactive). With `COc1cc(C)c(Cl)cc1S(=O)(=O)N(C)C` the Kd was > 4 mM (inactive). For `O=c1c2ccccc2oc2ccc(O)cc12`, the Kd was > 4 mM (inactive). For `CC(=O)c1cccc(NS(=O)(=O)N2CCCCC2)c1`, the Kd was > 4 mM (inactive). With `CS(=O)(=O)NN=C1CCCCC1` the Kd was > 4 mM (inactive). In the case of `NC(=O)NC(=O)Nc1ccc(Cl)cc1`, the Kd is reported as > 4 mM (inactive). For `CC1(C)CC[C@]2(C)CC[C@]3(C)C(=CCC4[C@@]5(C)CC[C@H](O)C(C)(C)C5CC[C@]43C)C2C1` (stereo not given in full), the Kd was > 4 mM (inactive). For `NS(=O)(=O)c1ccc(NC(=S)NC2CC2)cc1`, the Kd was > 4 mM (inactive). For `C#CCCCCCCCCCCCC(O)CC(O)COC(C)=O` (stereo not given), the Kd was > 4 mM (inactive). In the case of `O=C1CSC(=Nc2ccc(F)cc2)N1`, the Kd is reported as > 4 mM (inactive). `Cc1ccc(C(=O)NCCO)c(Cl)c1` was tested, and the Kd was > 4 mM (inactive).
